Measurements from PMC3597730, “Novel Phenolic Inhibitors of Small/Intermediate-Conductance Ca^2+-Activated K^+ Channels, KCa3.1 and KCa2.3” (PLoS ONE, 2013).
Where “and” joins values, the source holds several entries; their conditions need not be identical. Identical values can stand only once. Entries after “also recorded” stand apart in the source; their conditions may differ. Like-named read-outs stand apart in the source and are kept apart here.

Tests used:
[1] = target: T1, KCa3.1 channels in 3T3 fibroblasts (Mus musculus, UniProt O89109); assay: Whole-cell patch-clamp of KCa3.1 currents in 3T3 fibroblasts; format: cell-based; details: for remaining activity at 10 µM: read-out: % of control at 10 µM; for KCa3.1 blocking effect (in words) / EC50: whole-cell; for KCa3.1 blocking effect (in words): concentrations up to 50 µM as in Table 1; for remaining activity at 1 µM: read-out: % of control at 1 µM; for remaining activity at 50 µM: compound 50 µM, read-out: % of control at 50 µM
T1 construct: KCa3.1 channels in 3T3 fibroblasts; endogenous in cells; host or cells: 3T3-L1 mouse embryonic fibroblasts

[2] = target: T2, cloned human KCa3.1 channel (Homo sapiens, UniProt O15554); assay: Inside-out patch recordings from hKCa3.1-overexpressing HEK293 cells; format: biochemical; details: inside-out patches; compound 1 µM
T2 construct: expressed in transfected cells; gift of Khaled Houamed, University of Chicago

hKCa2.3 = target: T3, hKCa2.3 (Homo sapiens, UniProt Q9UGI6); assay: Whole-cell patch-clamp of hKCa2.3 in COS7 cells; format: cell-based; details: for remaining activity at 1 µM: COS-7, hKCa2.3, compound 1 µM, mean ± SEM, n ≥ 3, read-out: % of control at 1 µM; for KCa2.3 blocking effect (in words): micromolar concentrations
T3 construct: expressed in transfected cells; host or cells: COS7

hKv1.2 = target: T4, hKv1.2 (Homo sapiens, UniProt P16389); assay: Whole-cell patch-clamp of cloned hKv1.2; format: cell-based; details: for remaining activity at 1 µM: hKv1.2, compound 1 µM, read-out: % of control at 1 µM
T4 construct: expressed in transfected cells; host or cells: B82 murine fibroblasts (Methods)

[3] = system: mixed KCa3.1 and KCa2.3 currents in PCAEC; assay: Whole-cell patch-clamp of KCa currents in porcine coronary artery endothelial cells; format: cell-based; details: whole-cell, compound 1 µM
[4] = KCa3.1 whole-cell current, 3T3 fibroblasts, 1 µM free Ca2+ in pipette, compound 10 µM, mean ± SEM, n ≥3
[5] = KCa3.1 whole-cell current, 3T3 fibroblasts, 1 µM free Ca2+ in pipette, compound 1 µM, mean ± SEM, n ≥3
[6] = KCa3.1 whole-cell current, 3T3 fibroblasts, 1 µM free Ca2+ in pipette, mean ± SEM, n ≥3
[7] = EC50 of KCa3.1 inhibition, 3T3 fibroblasts
[8] = 3T3 fibroblasts, read-out: EC50 of KCa3.1 inhibition

T4 sequence (P16389 whole entry): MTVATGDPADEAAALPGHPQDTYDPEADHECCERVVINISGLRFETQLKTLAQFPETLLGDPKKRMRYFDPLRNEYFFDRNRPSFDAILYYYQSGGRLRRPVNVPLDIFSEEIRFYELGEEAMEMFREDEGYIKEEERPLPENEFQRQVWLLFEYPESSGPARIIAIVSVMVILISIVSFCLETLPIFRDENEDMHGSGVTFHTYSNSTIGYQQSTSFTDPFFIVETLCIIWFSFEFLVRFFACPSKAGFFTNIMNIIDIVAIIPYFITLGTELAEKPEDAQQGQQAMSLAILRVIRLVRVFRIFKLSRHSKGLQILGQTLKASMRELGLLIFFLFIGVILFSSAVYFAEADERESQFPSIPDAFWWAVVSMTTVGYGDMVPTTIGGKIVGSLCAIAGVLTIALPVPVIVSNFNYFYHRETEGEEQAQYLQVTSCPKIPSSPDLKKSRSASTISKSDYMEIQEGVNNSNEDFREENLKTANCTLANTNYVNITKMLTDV
T3 sequence (Q9UGI6 whole entry): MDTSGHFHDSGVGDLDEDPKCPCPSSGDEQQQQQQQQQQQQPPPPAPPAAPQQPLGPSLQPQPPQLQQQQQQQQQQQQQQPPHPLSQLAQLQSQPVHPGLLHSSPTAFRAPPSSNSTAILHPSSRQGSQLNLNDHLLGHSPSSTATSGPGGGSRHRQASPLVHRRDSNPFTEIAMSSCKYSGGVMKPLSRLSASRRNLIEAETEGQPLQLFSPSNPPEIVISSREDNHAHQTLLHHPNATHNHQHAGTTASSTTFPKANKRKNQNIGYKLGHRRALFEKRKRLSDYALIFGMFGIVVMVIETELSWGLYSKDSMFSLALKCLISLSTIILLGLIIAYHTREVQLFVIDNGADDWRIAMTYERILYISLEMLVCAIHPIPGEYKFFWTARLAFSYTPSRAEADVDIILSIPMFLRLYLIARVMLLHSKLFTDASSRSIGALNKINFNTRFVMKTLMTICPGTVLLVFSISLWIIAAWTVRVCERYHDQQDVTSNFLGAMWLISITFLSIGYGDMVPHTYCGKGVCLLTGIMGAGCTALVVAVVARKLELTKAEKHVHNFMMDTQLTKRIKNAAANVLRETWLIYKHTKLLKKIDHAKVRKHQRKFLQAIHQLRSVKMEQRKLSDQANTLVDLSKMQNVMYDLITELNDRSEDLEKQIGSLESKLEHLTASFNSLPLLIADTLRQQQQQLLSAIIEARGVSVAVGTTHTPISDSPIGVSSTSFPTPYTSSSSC

| SMILES | remaining activity at 10 µM [1, 4] [%] | KCa3.1 blocking effect (in words) ([1]; 3T3 fibroblasts) | remaining activity at 50 µM [1, 6] [%] | other results |
| --- | --- | --- | --- | --- |
| O=C(OC[C@H]1O[C@@H](OC(=O)c2cc(O)c(O)c(O)c2)[C@H](OC(=O)c2cc(O)c(O)c(O)c2)[C@@H](OC(=O)c2cc(O)c(O)c(O)c2)[C@@H]1OC(=O)c1cc(O)c(O)c(O)c1)c1cc(O)c(O)c(O)c1 [1,2,3,4,6-pentagalloyl glucose, [(2S,3R,4S,5R,6R)-2,3,5-tris[(3,4,5-trihydroxybenzoyl)oxy]-6-[(3,4,5-trihydroxybenzoyl)oxymethyl]oxan-4-yl] 3,4,5-trihydroxybenzoate] | 102 ± 6 | no | – | – |
| OCCc1ccc(O)c(O)c1 [Hydroxytyrosol] | 108 ± 15 | weak or no blocking effects and no | – | remaining activity at 1 µM [1, 5]: 117 ± 9% |
| O=C(O)c1cccnc1Nc1cccc(C(F)(F)F)c1 [Niflumic Acid, reference compound] | 106 ± 7 | no blocking activity; also recorded: no blocking effects | 81 ± 4 | – |
| COc1cc(C(=O)O)ccc1O [Vanillic Acid, 4-hydroxy-3-methoxybenzoic acid] | 78 ± 11 | weak or no blocking effects; also recorded: Weak inhibition | 46 ± 12 | EC50 [1, 7]: > 10 µM |
| COc1cc(C(=O)OCc2cc(COC(=O)c3ccc(O)c(OC)c3)cc(COC(=O)c3ccc(O)c(OC)c3)c2)ccc1O [Compound 13a, [3,5-bis[(4-hydroxy-3-methoxy-benzoyl)oxymethyl]phenyl]methyl4-hydroxy-3-methoxy-benzoate] | – | – | – | remaining activity at 1 µM [1, 5]: 78 ± 6%; hKCa3.1 blocking effect (in words) [2]: no or minor blocking effects; also recorded: did not block; remaining activity at 1 µM (hKCa2.3): 98 ± 1%; KCa2.3 blocking effect (in words) (hKCa2.3): no blocking effects; block of hKv1.2 currents (hKv1.2; 1 µM): 50%; remaining activity at 1 µM (hKv1.2): 46 ± 3% |
| Cc1cccc(Nc2ccccc2C(=O)O)c1C [Mefenamic Acid, 2-((2,3-dimethylphenyl)amino)benzoic acid, reference compound] | 136 ± 28 | no blocking effects | – | remaining activity at 1 µM [1, 5]: 117 ± 4% |
| Cc1ccc(=O)n(-c2ccccc2)c1 [Pirfenidone, methyl-1-phenylpyridin-2(1H)-one, reference compound] | 98 ± 5 | no effects | 99 ± 14 | – |
| CC(=O)Oc1ccccc1C(=O)O [2-acetyloxybenzoic acid, reference compound] | 108 ± 5 | no effect | 104 ± 7 | – |
| Nc1ccc(O)c(C(=O)O)c1 [Mesalamine, 5-amino-2-hydroxybenzoic acid, reference compound] | 53 ± 7 | – | 46 ± 3 | remaining activity at 1 µM [1, 5]: 72 ± 6%; EC50 [1, 8]: ≥ 10 µM and 26 µM |
| O=C(O)c1cc(O)c(O)c(O)c1 [Gallic acid, 3,4,5-trihydroxybenzoic acid] | 101 ± 6 | weak or no blocking effects and no | – | – |
| NC(=O)C[S+]([O-])C(c1ccccc1)c1ccccc1 (stereo not shown) [Modafinil, 2-benzhydrylsulfinylacetamide, reference compound] | – | – | – | EC50 [1, 7]: > 1 µM; remaining activity at 10 µM [1]: 33 ± 6% |
| O=C(OCc1cc(COC(=O)c2ccc(O)c(Cl)c2)cc(COC(=O)c2ccc(O)c(Cl)c2)c1)c1ccc(O)c(Cl)c1 [Compound 13c, [3,5-bis[(3-chloro-4-hydroxy-benzoyl)oxymethyl]phenyl]methyl3-chloro-4-hydroxy-benzoate] | – | weak to moderate blocking efficiency | – | remaining activity at 1 µM [1, 5]: 61 ± 17%; hKCa3.1 blocking effect (in words) [2]: no or minor blocking effects; also recorded: did not block; remaining activity at 1 µM (hKCa2.3): 92 ± 4%; KCa2.3 blocking effect (in words) (hKCa2.3): no blocking effects; hKv1.2 blocking effect (in words) (hKv1.2; flufenamic acid and caffeic acid 10 and 50 µM, 13c 1 µM): no effect; remaining activity at 1 µM (hKv1.2): 104 ± 3% |
| Clc1ccccc1C(c1ccccc1)(c1ccccc1)n1cccn1 [TRAM-34, 1-[(2-chlorophenyl) (diphenyl)methyl]-1H-pyrazole, reference compound] | – | completely inhibited | – | remaining activity at 1 µM [1]: 1 ± 1%; KCa current, % of control [3]: 58±4% |
| O=C(/C=C/c1ccc(O)c(O)c1)OCCc1ccccc1 [Caffeic acid phenethyl ester, 2-phenylethyl (E)-3-(3,4-dihydroxyphenyl)propenoate] | 94 ± 6 | no | – | – |
| Oc1ccc(/C=C/c2cc(O)cc(O)c2)cc1 [Resveratrol, 5-[(E)-2-(4-Hydroxyphenyl)vinyl]benzene-1,3-diol] | – | – | – | EC50 [1, 8]: 10 µM and ~10 µM and 1 to 10 µM |
| c1cc2cc(c1)C[n+]1ccc(c3ccccc31)NCc1ccc(cc1)CNc1cc[n+](c3ccccc13)C2 [UCL1684, 6,10-diaza-3(1,3),8(1,4)-dibenzena-1,5(1,4)-diquinolinacyclodecaphane, reference compound] | – | – | – | % of control at 100 nM (hKCa2.3; hKCa2.3 current pre-activated by 1 µM SKA-31, n = 4): 2±1% |
| COc1cc(/C=C/C(=O)O)ccc1O [Ferulic Acid, (E)-3-(4-hydroxy-3-methoxyphenyl)propenoic acid] | 87 ± 8 | – | 32 ± 4 | EC50 [1, 7]: > 10 µM |
